These results are taken from ChEMBL document CHEMBL1132813, “Design, synthesis and cytotoxic activities of naphthyl analogues of combretastatin A-4” (Bioorg Med Chem Lett, 2000).

Assay type in all cases: functional, cell-based
The subject of one test is SK-MEL-28. Put plainly: The compound was evaluated for its cytotoxic potency against MEL-28 cell line. As to conditions: Homo sapiens.
The next test relates to HT-29. Put plainly: The compound was evaluated for its cytotoxic potency against HT-29 cell line. As to conditions: Homo sapiens.
The subject of another test is A549. Nature of the test: The compound was evaluated for its cytotoxic potency against A-549 cell line. As to conditions: Homo sapiens.
The test system of a further test is P388. Nature of the test: The compound was evaluated for its cytotoxic potency against P388 cell line. As to conditions: Mus musculus.

Take `COc1ccc(/C=C\c2cc(OC)c(OC)c(OC)c2)cc1O` [COMBRETASTATIN A4]: the IC50 (as a rule, the concentration needed to halve the response being measured) is 3.16 nM in the test with SK-MEL-28, 31.6 nM in the test with HT-29, 3.16 nM with A549 and 3.16 nM with P388.
In the case of `COc1cc(/C=C/c2ccc3ccccc3c2)cc(OC)c1OC`, the IC50 in the test with SK-MEL-28, with HT-29, with A549 and in the test with P388 was 398 nM throughout.
Consider `COc1cc(/C=C\c2ccc3ccccc3c2)cc(OC)c1OC` [NAPHTHYLCOMBRETASTATIN], for which the IC50 in the test on SK-MEL-28, in the test on HT-29, in the test on A549 and with P388 was 15.8 nM each time.
For the compound `COc1cc(CCc2ccc3ccccc3c2)cc(OC)c1OC`, the IC50 with SK-MEL-28, with HT-29, in the test with A549 and in the test on P388 was 316 nM each time.
With `COc1ccc(/C=C\c2ccc3ccccc3c2)cc1O`, the concentration for half-maximal inhibition (IC50) in the test on SK-MEL-28, in the test with HT-29, with A549 and with P388 was 39.8 nM in each case.
In the case of `COc1ccc2[nH]c(-c3ccc4ccccc4c3)c(-c3cc(OC)c(OC)c(OC)c3)c2c1`, the half-maximal inhibitory concentration (IC50) with SK-MEL-28, in the test with HT-29, in the test on A549 and with P388 was 1260 nM throughout.
As to `COc1ccc(/C=C/c2ccc3ccccc3c2)cc1O`, the concentration for half-maximal inhibition (IC50) in the test on SK-MEL-28, in the test with HT-29, in the test with A549 and in the test on P388 was 3980 nM each time.
With `C(=C/c1ccc2ccccc2c1)/c1ccc2ccccc2c1`, the IC50 in the test with SK-MEL-28, in the test on HT-29, in the test on A549 and in the test with P388 was 3980 nM in each case.
`COc1ccc(CCc2ccc3ccccc3c2)cc1O`: the half-maximal inhibitory concentration (IC50) with SK-MEL-28 is 5010 nM; in the test with HT-29, 10000 nM; in the test on A549 it was 5010 nM; with P388, 5010 nM.
